ChEMBL document CHEMBL3988442, “University of Dundee, Small-Polar-MMV Screening Library” (2021)
Where “and” joins values, the source holds several entries; their conditions need not be identical. Equal entries are not always repeated.

Experiments:
Lysine--tRNA ligase = Lysine--tRNA ligase (Plasmodium falciparum (isolate 3D7), UniProt Q8IDJ8); assay: Pf-KRS-1 (Lysyl-RNA Synthetase-1, KRS-1, cytosolic KRS) from Plasmodium falciparum. Inhibitor assay, 384 well plate, luminescence read.; format: functional
Chain of Lysine--tRNA ligase (Q8IDJ8 whole entry): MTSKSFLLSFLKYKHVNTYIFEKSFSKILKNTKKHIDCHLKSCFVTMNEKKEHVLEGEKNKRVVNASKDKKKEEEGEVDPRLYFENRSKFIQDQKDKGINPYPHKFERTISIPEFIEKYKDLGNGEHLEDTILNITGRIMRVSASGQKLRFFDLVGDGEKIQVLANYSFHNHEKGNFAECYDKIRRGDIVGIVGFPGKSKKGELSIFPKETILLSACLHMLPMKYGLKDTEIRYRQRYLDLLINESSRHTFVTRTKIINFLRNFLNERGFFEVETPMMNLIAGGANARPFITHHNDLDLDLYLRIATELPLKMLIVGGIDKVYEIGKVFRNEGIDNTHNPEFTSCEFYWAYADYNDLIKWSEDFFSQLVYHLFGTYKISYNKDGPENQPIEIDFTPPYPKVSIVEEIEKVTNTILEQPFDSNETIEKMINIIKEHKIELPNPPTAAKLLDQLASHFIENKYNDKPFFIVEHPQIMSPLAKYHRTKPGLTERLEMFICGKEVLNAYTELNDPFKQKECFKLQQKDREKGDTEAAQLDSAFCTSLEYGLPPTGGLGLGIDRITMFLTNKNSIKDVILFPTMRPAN

ClpP1P2 = ClpP1P2 (Mycobacterium tuberculosis (strain ATCC 25618 / H37Rv), UniProt P9WPC3+P9WPC5); assay: in vitro assay to detect presence of AMC directly proportional to the activity of ClpP1P2. GHDDI collaboration.; format: functional
Chain of ClpP1P2 (P9WPC5 whole entry): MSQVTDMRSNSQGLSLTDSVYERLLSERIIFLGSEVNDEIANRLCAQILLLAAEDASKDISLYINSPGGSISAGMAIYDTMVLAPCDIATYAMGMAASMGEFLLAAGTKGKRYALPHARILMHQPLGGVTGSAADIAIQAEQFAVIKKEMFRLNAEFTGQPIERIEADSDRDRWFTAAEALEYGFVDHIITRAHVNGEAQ
Chain of ClpP1P2 (P9WPC3 whole entry): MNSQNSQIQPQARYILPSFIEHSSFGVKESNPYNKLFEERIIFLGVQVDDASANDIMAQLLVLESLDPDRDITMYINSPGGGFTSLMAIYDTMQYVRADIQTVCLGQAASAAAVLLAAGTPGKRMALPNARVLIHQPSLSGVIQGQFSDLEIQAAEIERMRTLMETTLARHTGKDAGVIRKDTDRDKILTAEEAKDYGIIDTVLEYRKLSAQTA

Histidine--tRNA ligase = molecular target: T1, Histidine--tRNA ligase (Leishmania infantum, UniProt A4I591); assay: Leishmania infantum Histidine tRNA synthetase (LdHisRS); format: functional
T1 sequence (A4I591 whole entry): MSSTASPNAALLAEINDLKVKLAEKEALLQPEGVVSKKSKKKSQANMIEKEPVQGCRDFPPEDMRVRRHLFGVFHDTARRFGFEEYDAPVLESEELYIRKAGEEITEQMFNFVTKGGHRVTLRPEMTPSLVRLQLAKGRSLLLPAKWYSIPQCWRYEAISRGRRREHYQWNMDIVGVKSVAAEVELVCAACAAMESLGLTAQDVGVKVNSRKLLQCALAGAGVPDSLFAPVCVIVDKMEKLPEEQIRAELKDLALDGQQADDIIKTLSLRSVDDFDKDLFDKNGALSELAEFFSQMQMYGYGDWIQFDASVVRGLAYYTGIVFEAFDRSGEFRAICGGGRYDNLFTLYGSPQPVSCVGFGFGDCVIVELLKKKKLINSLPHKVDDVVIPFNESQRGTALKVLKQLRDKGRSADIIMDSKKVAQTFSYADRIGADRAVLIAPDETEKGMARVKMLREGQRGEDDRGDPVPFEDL

[1] = molecular target: T2, Coenzyme A biosynthesis bifunctional protein CoaBC (Mycobacterium tuberculosis (strain ATCC 25618 / H37Rv), UniProt P9WNZ1); assay: Biomol Green assay for MtCoaBC inhibitor, OD650 read; format: functional
T2 sequence (P9WNZ1 whole entry): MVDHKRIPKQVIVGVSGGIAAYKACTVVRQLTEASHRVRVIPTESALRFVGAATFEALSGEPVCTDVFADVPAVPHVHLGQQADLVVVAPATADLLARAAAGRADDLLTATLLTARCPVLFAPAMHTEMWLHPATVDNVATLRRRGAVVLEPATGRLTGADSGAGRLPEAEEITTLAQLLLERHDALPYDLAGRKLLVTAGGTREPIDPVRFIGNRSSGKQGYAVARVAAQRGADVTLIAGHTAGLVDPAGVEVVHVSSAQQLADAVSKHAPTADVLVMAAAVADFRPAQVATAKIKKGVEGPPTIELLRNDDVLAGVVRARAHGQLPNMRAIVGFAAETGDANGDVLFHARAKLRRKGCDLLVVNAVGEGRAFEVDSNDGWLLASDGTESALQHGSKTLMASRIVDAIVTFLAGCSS

Plasmodium falciparum = assay: Calibr Malaria Delayed Death Assay SOP; format: functional, organism-based; details: for IC50: Plasmodium falciparum
[2] = In vitro enzyme assay to detect hydrolysis of chlorophenol red-beta-D-[…] directly proportional to the number of Toxoplasma stably expressing beta-galactosidase; format: functional, organism-based, Toxoplasma gondii; details: Toxoplasma gondii
Tryptophan--tRNA ligase = Tryptophan--tRNA ligase (Mycobacterium tuberculosis (strain ATCC 25618 / H37Rv), UniProt P9WFT3); assay: Biochemical assay for Mt-TrpRS; format: functional
Chain of Tryptophan--tRNA ligase (P9WFT3 whole entry): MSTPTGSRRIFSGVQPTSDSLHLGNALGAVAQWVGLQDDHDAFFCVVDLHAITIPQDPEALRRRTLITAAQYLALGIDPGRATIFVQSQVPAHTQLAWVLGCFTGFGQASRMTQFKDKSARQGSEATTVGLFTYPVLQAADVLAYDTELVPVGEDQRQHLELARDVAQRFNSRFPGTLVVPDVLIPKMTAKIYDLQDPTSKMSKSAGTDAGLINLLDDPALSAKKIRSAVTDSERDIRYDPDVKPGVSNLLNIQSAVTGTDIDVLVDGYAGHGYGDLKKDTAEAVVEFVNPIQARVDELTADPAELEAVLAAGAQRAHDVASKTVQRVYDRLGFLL

Leishmania donovani = assay: Leishmania intramacrophage assay; format: functional, organism-based; details: Leishmania donovani

SMILES	IC50 (Lysine--tRNA ligase)	IC50 (Histidine--tRNA ligase)	IC50 [1]	also measured
Cc1ccc(C(=O)NCc2cc(F)ccc2N2CCCN(C)CC2)o1	> 50.1 µM	–	–	–
Cc1nc(-c2ccc(CC(=O)N3CCN(C(=O)C(C)C)CC3)cc2)cs1	–	24.8 µM and 12.4 µM	> 30.2 µM	IC50 (ClpP1P2): 8.96 µM
O=C(NCC1CCC1)c1ccnc(-n2ccnc2)c1	> 50.1 µM	–	–	–
CCC1CCC(CNC(=O)c2c[nH]c(=O)c(Cl)c2)CC1 (stereo not given)	> 50.1 µM	–	–	–
CCOC(=O)C1CCCN(Cc2cc(C#N)n(C)c2C)C1 (stereo not given)	> 50.1 µM	–	–	–
O=C(NCC1(O)CCSCC1)c1ccoc1	> 50.1 µM	–	–	–
CC(C)C(=O)NC1CCN(c2cccc(OC(F)(F)F)c2)C1=O (stereo not given)	> 50.1 µM	–	–	–
Cc1ccc(NS(=O)(=O)c2cnn(-c3ccccc3)c2)c(C(=O)O)c1	–	38.9 µM and 18.2 µM	22.5 µM and 20.5 µM	–
COc1cccc(CNc2cc(C)nc(-c3ccncc3)n2)c1OC	–	91.8 µM and > 100 µM	> 30.2 µM	pIC50 (Plasmodium falciparum): 6.336; IC50 (Plasmodium falciparum): 0.465 µM
N#Cc1ccsc1N1CCC(Sc2ccncc2)C1=O (stereo not given)	–	17.7 µM and 33 µM	> 30.2 µM	–
COc1ccsc1C(=O)Nc1cc(Br)c(=O)n(C)c1	–	19.7 µM and 23.3 µM	> 30.2 µM	–
c1csc(C2(NCc3csc(C4CC4)n3)CCCC2)n1	–	57.3 µM and 56.6 µM	> 30.2 µM	–
O=C(NCc1cccnc1N1CCc2ccccc2C1)c1cc(=O)[nH][nH]1	–	44.8 µM and 45.1 µM	> 30.2 µM	–
CCN(Cc1ccc2cccc(O)c2n1)CC1CCCO1 (stereo not given)	–	18.6 µM and 12.3 µM	> 30.2 µM	–
COc1ccc(-n2c(CCC(=O)O)nc3ccccc32)cc1CO	–	68.6 µM and 44 µM	> 50.1 µM	–
Cc1ccc(-c2cc(-c3nc(CN4CCN(C)CC4)no3)[nH]n2)s1	–	–	> 30.2 µM	IC50 (ClpP1P2): > 100 µM
CC(C)Cc1nc(CO)n(-c2ccc3c(c2)OCCO3)n1	–	–	> 30.2 µM	IC50 (ClpP1P2): > 100 µM
Cc1n[nH]c(C)c1-c1c(C#N)c(N)nc2c1CCc1[nH]ccc1-2	–	16.8 µM and 18.1 µM	> 30.2 µM	IC50 (ClpP1P2): > 100 µM
NCC1Cc2cc(Oc3cc(F)c(CN4CCCC4)c(F)c3)ccc2O1 (stereo not given)	–	30.2 µM and 36.9 µM	> 30.2 µM	IC50 (ClpP1P2): 20.8 µM; IC50 [2]: 20.4 µM

SMILES	IC50 (Lysine--tRNA ligase)	IC50 (Histidine--tRNA ligase)	IC50 [1]	also measured
c1ccc(Cn2cc(CNCC3CNc4ccnn4C3)cn2)cc1 (stereo not given)	–	–	> 30.2 µM	IC50 (Tryptophan--tRNA ligase): > 195 µM
COc1ccc(C(O)CN2CC(n3nc(C)cc3C)C2)cc1 (stereo not given)	–	–	> 30.2 µM	pIC50 (Plasmodium falciparum): 5.759; IC50 (Plasmodium falciparum): 1.76 µM
Cc1ccc(C)n1-c1ccc(C(=O)NCCNc2ncccn2)cc1	–	> 100 µM	> 30.2 µM	–
CC(C)NC(=O)N1CCc2c(CNc3ncccn3)cncc2C1	> 50.1 µM	–	–	–
Cc1nccn1-c1cccc(C2CCCN2)n1 (stereo not given)	–	–	> 30.2 µM	IC50 (ClpP1P2): > 100 µM
COCCN1CCOCC12CCN(c1ccc(C#N)cc1)CC2	> 50.1 µM	–	–	–
O=S(=O)(NC1CCC12CCN(CC1CCOCC1)CC2)c1ccccc1 (stereo not given)	> 50.1 µM	–	–	–
CN(C)Cc1cnc2n1CCN(C(=O)Cc1ccc(F)cc1)CC2	> 50.1 µM	–	–	–
O=C(CC1CCCC1)N1CC[C@H]2[C@H]1CCN2c1nncs1	> 50.1 µM	–	–	–
Cc1cnc(N2CCN(C)c3ncccc3C2)nc1	> 50.1 µM	–	–	–
O=C(O)c1c(-c2ccoc2)ncc2c1CCN(C1CCOC1)C2 (stereo not given)	> 50.1 µM	–	–	–
Cc1noc(C)c1CN1CCOC2(CCCN(c3nncs3)C2)C1 (stereo not given)	> 50.1 µM	–	–	–
CC(=O)N1CC(=O)N(c2ccsc2)CC12CCN(Cc1ccccn1)C2 (stereo not given)	> 50.1 µM	–	–	–
CCOCC1CN(Cc2ccc(OC)cc2)Cc2nn(CC3CC3)cc21 (stereo not given)	> 50.1 µM	–	–	–
Cc1ccc(CN2C[C@@H]3CCN(Cc4ccncc4)C(=O)[C@H]3C2)s1	–	–	> 30.2 µM	IC50 (ClpP1P2): 34.3 µM
COCCCN1CCCC12CCN(Cc1cccnc1OC)CC2	> 50.1 µM	–	–	–
Cc1ccc(CN2C[C@@H]3CN(CC4CCOCC4)CCO[C@@H]3C2)s1	> 50.1 µM	–	–	–
O=C(O)CN1CCC(F)(F)C2(CCN(c3ccccc3)C2)C1 (stereo not given)	–	43.6 µM and 39.5 µM	> 30.2 µM	IC50 (Leishmania donovani): > 50.1 µM
Cc1cc(C(=O)N2CCCC3(COCCN(CCN(C)C)C3)C2)no1 (stereo not given)	> 50.1 µM	–	–	–
